Consider 4 compounds from PubChem BioAssay (NCI).

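Test compounds were applied to cells in 96-well plates for 48 hours at 5 doses. GI50 is the concentration that inhibits growth by half. TGI marks complete inhibition of growth.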 A value given as a limit tells only on which side of the number the result lay.

Test systems include COLO 205 colon; HOP-62 NSCLC; LOX IMVI melanoma; NCI-H522 lung; RXF 393 renal; SF-268 CNS; SN12C renal; SNB-75 CNS; SR leukemia; U251 CNS.
What all share (test): NCI tumour cell line growth inhibition, 48 h

`CNCCCn1cc(C2=C(c3cn(C)c4ccccc34)C(=O)NC2=O)c2ccccc21`: the GI50 in the assay with COLO 205 colon is 1.95 µM; with HOP-62 NSCLC, 5.59 µM; in the assay on LOX IMVI melanoma, 3.93 µM; with NCI-H522 lung, 4.01 µM; in the assay on RXF 393 renal, 3.48 µM; in the assay on SF-268 CNS, 5.24 µM. Moreover, the GI50 was 4.86 µM in the assay on SN12C renal, 0.281 µM with SNB-75 CNS, 3.94 µM in the assay on SR leukemia and 3.14 µM in the assay with U251 CNS. Besides, the TGI came out at 5.52 µM in the assay with COLO 205 colon; 13.4 µM in the assay on HOP-62 NSCLC; 8.28 µM in the assay with LOX IMVI melanoma; 8.71 µM in the assay with NCI-H522 lung; 6.95 µM with RXF 393 renal; 12 µM in the assay on SF-268 CNS. The TGI with SN12C renal came out at 18.4 µM; with SNB-75 CNS it was 2.95 µM; in the assay with SR leukemia, 16.2 µM; in the assay on U251 CNS, 6.96 µM.
Take `CCCCc1c(OC)cc(O)c2c1C(=O)c1[nH]c(C(=O)O)c(O)c(=O)c1C2=O`: the TGI was 64.6 µM in the assay on COLO 205 colon; 9.29 µM with HOP-62 NSCLC; more than 100 µM in the assay with LOX IMVI melanoma; 9.94 µM with NCI-H522 lung; 8.25 µM with RXF 393 renal; more than 100 µM in the assay on SF-268 CNS. Further, the TGI in the assay with SN12C renal was more than 100 µM; in the assay on SNB-75 CNS it was 27.5 µM; in the assay with SR leukemia, 29.3 µM; with U251 CNS, 17.6 µM.
As to `CC(C)(C)C(=O)OCOP(=O)(OCOC(=O)C(C)(C)C)C1CCCN(O)C1=O` (stereo not given), the GI50 in the assay on COLO 205 colon was 0.6 µM; in the assay with HOP-62 NSCLC, 0.487 µM; with LOX IMVI melanoma, 0.465 µM; with NCI-H522 lung, 0.308 µM; in the assay with RXF 393 renal, 0.36 µM; with SF-268 CNS it was 0.441 µM. For the same compound, the GI50 with SN12C renal is 0.334 µM; with SNB-75 CNS, 1.43 µM; in the assay on SR leukemia, 0.433 µM; with U251 CNS it was 0.342 µM. The TGI is 3.64 µM in the assay with COLO 205 colon; 6.63 µM in the assay on HOP-62 NSCLC; 12.3 µM in the assay with LOX IMVI melanoma; 1.83 µM in the assay on NCI-H522 lung; 1.74 µM in the assay with RXF 393 renal; 20.2 µM with SF-268 CNS. Moreover, the TGI was determined as 14.1 µM with SN12C renal, 28.6 µM in the assay with SNB-75 CNS, 7.87 µM in the assay with SR leukemia and 5.22 µM in the assay on U251 CNS.
Take `CCOc1nc(-c2ccccc2)cc2c(O)c(-c3nnco3)[nH]c(=O)c12`: the GI50 in the assay with COLO 205 colon is 5.74 µM; with HOP-62 NSCLC it was 4.12 µM; in the assay with LOX IMVI melanoma, 4.4 µM; in the assay on NCI-H522 lung, 3.09 µM; with RXF 393 renal, 3.71 µM; in the assay with SF-268 CNS, 5.62 µM. In addition, the GI50 in the assay with SN12C renal is 3.27 µM; in the assay on SNB-75 CNS, 1.92 µM; with SR leukemia it was 3.85 µM; with U251 CNS, 4.41 µM. The TGI in the assay with COLO 205 colon is more than 100 µM; with HOP-62 NSCLC it was more than 100 µM; in the assay on LOX IMVI melanoma it was more than 100 µM; with NCI-H522 lung, more than 100 µM; in the assay on RXF 393 renal it was 25.2 µM; in the assay with SF-268 CNS it was more than 100 µM. Besides, the TGI in the assay on SN12C renal was more than 100 µM; in the assay with SNB-75 CNS, 8.99 µM; with SR leukemia it was more than 100 µM; in the assay with U251 CNS it was more than 43.7 µM.
